Results from patent US7709482B2, “Polycyclic heteroaryl substituted triazoles useful as Axl inhibitors” (Rigel Pharmaceuticals, Inc., priority 2006, dated 2010).

Target: T1, Axl (Homo sapiens, UniProt P30530)
T1 construct: endogenous in cells; host or cells: HeLa cells
T1 sequence (P30530 26-894): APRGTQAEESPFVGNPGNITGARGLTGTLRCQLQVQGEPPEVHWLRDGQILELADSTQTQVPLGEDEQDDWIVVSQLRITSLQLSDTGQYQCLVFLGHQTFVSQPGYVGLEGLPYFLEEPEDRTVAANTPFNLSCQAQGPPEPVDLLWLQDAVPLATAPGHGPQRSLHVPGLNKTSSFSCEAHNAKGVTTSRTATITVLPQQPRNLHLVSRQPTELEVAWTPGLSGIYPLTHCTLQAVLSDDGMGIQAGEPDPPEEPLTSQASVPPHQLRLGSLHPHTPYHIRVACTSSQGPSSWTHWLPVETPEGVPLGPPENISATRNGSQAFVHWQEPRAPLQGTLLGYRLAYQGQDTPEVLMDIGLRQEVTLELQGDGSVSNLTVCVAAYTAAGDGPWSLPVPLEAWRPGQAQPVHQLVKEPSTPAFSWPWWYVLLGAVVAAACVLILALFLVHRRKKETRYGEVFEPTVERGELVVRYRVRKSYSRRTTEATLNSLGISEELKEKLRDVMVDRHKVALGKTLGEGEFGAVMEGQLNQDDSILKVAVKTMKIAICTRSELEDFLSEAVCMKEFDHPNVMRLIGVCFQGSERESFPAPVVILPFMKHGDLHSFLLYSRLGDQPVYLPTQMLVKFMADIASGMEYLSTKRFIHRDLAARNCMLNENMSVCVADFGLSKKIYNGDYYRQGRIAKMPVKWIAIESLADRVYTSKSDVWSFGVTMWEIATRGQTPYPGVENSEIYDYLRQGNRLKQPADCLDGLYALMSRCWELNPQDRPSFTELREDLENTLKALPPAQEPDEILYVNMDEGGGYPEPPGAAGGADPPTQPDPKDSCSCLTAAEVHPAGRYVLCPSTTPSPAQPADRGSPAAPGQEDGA
Experiment: Phospho-Akt In-Cell Western Assay (inhibition of Axl activity after Axl-antibody cross-linking)
Type: cell-based
Details: Hela cells, phospho-Akt chemiluminescence normalized to relative cell number; compounds of formula (Ia), Table 1; read-out: IC50
Summary of the method: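 HeLa cells on poly-L-lysine, starved 24 h in 0.5% FCS DMEM with Axl/Fc 500 ng/mL, pre-treated with compound 1 h at 37 °C, then stimulated 5 min by anti-Axl/anti-mouse antibody cross-linking. Fixed cells probed for phospho-Akt with HRP secondary and chemiluminescent detection.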

SMILES	IC50
CN(C1CCCC1)C1CCN(c2ccc(Nc3nc(N)n(-c4cc5c(nn4)-c4ccccc4CCC5)n3)cc2F)CC1 [Compound 82, 1-(6,7-dihydro-5H-benzo[6,7]cyclohepta[1,2-c]pyridazin-3-yl)-N^3-(3-fluoro-4-(4-(N-methyl-cyclopentylamino)-piperidinyl)phenyl)-1H-1,2,4-triazole-3,5-diamine]	< 1000 nM
CCCN(CCC)C1CCN(c2ccc(Nc3nc(N)n(-c4cc5c(nn4)-c4ccccc4CCC5)n3)cc2F)CC1 [Compound 83, 1-(6,7-dihydro-5H-benzo[6,7]cyclohepta[1,2-c]pyridazin-3-yl)-N^3-(3-fluoro-4-(4-(dipropylamino)piperidin-1-yl)phenyl)-1H-1,2,4-triazole-3,5-diamine]	1000 to 10000 nM
CCCN1CCC2CN(c3ccc(Nc4nc(N)n(-c5cc6c(nn5)-c5ccccc5CCC6)n4)cc3F)CCC21 (stereo not drawn) [Compound 84, 1-(6,7-dihydro-5H-benzo[6,7]cyclohepta[1,2-c]pyridazin-3-yl)-N^3-(3-fluoro-4-(1-propyloctahydro-1H-pyrrolo[3,2-c]pyridine-5-yl)phenyl)-1H-1,2,4-triazole-3,5-diamine]	< 1000 nM
CN1CCN(C2CCN(c3ccc(Nc4nc(N)n(-c5cc6c(nn5)CCCc5ccccc5-6)n4)cc3F)CC2)CC1 [Compound 85, 1-(6,7-dihydro-5H-benzo[6,7]cyclohepta[4,5-c]pyridazin-2-yl)-N^3-(3-fluoro-4-(4-(N-methylpiperazin-1-yl)piperidin-1-yl)phenyl)-1H-1,2,4-triazole-3,5-diamine]	< 1000 nM
CC(C)(C)OC(=O)NC1CCN(c2ccc(Nc3nc(N)n(-c4cc5c(nn4)-c4ccccc4CCC5)n3)cc2F)CC1 [Compound 86, 1-(6,7-dihydro-5H-benzo[6,7]cyclohepta[1,2-c]pyridazin-3-yl)-N^3-(3-fluoro-4-(4-(tert-butyloxycarbonylamino)-piperidin-1-yl)phenyl)-1H-1,2,4-triazole-3,5-diamine]	1000 to 10000 nM
Nc1nc(Nc2ccc(N3CCC(N)CC3)c(F)c2)nn1-c1cc2c(nn1)-c1ccccc1CCC2 [Compound 87, 1-(6,7-dihydro-5H-benzo[6,7]cyclohepta[1,2-c]pyridazin-3-yl)-N^3-(3-fluoro-4-(4-aminopiperidin-1-yl)phenyl)-1H-1,2,4-triazole-3,5-diamine]	< 1000 nM
Nc1nc(Nc2ccc(N3CCC(N4CC5CN(C6CCCCC6)CC5C4)CC3)c(F)c2)nn1-c1cc2c(nn1)-c1ccccc1CCC2 (stereo not drawn) [Compound 88, 1-(6,7-dihydro-5H-benzo[6,7]cyclohepta[1,2-c]pyridazin-3-yl)-N^3-(3-fluoro-4-(4-(5-cyclohexyl-octahydropyrrolo[3,4-c]pyrrolyl)piperidin-1-yl)phenyl)-1H-1,2,4-triazole-3,5-diamine]	< 1000 nM
Nc1nc(Nc2ccc3c(c2)CCCCO3)nn1-c1cc2c(nn1)-c1ccccc1CCC2 [Compound 89, 1-(6,7-dihydro-5H-benzo[6,7]cyclohepta[1,2-c]pyridazin-3-yl)-N^3-(2,3,4,5-tetrahydrobenzo[b]oxepin-7-yl)-1H-1,2,4-triazole-3,5-diamine]	1000 to 10000 nM
CCCCN(Cc1ccc(Nc2nc(N)n(-c3cc4c(nn3)-c3ccccc3CCC4)n2)cc1)C(C)=O [Compound 90, 1-(6,7-dihydro-5H-benzo[6,7]cyclohepta[1,2-c]pyridazin-3-yl)-N^3-(4-((N-butyl-N-acetoamino)methyl)phenyl)-1H-1,2,4-triazole-3,5-diamine]	1000 to 10000 nM
Nc1nc(Nc2ccc(CC3C(=O)Nc4ccc(F)cc43)cc2)nn1-c1cc2c(nn1)-c1ccccc1CCC2 (stereo not drawn) [Compound 91, 1-(6,7-dihydro-5H-benzo[6,7]cyclohepta[1,2-c]pyridazin-3-yl)-N^3-(4-((5-fluoroindolin-2-on-3-yl)methyl)phenyl)-1H-1,2,4-triazole-3,5-diamine]	> 20000 nM
Nc1nc(Nc2ccc(I)nc2)nn1-c1cc2c(nn1)-c1ccccc1CCC2 [Compound 92, 1-(6,7-dihydro-5H-benzo[6,7]cyclohepta[1,2-c]pyridazin-3-yl)-N^3-(6-iodopyridin-3-yl)-1H-1,2,4-triazole-3,5-diamine]	> 20000 nM
Nc1nc(Nc2ccc(CN3CCN(C4CCCC4)CC3)cc2)nn1-c1cc2c(nn1)-c1ccccc1CCC2 [Compound 104, 1-(6,7-dihydro-5H-benzo[6,7]cyclohepta[1,2-c]pyridazin-3-yl)-N^3-(4-((4-cyclopentylpiperazinyl)-methyl)phenyl)-1H-1,2,4-triazole-3,5-diamine]	< 1000 nM

The remaining lines, values ahead:

IC50	SMILES
> 20000 nM	Nc1nc(Nc2cccnc2)nn1-c1cc2c(nn1)-c1ccccc1CCC2 [Compound 93, 1-(6,7-dihydro-5H-benzo[6,7]cyclohepta[1,2-c]pyridazin-3-yl)-N^3-(pyridin-3-yl)-1H-1,2,4-triazole-3,5-diamine]
> 20000 nM	Nc1ccc(-c2ccc(Nc3nc(N)n(-c4cc5c(nn4)-c4ccccc4CCC5)n3)cn2)cn1 [Compound 94, 1-(6,7-dihydro-5H-benzo[6,7]cyclohepta[1,2-c]pyridazin-3-yl)-N^3-(6-(6-aminopyridin-3-yl)pyridine-3-yl)-1H-1,2,4-triazole-3,5-diamine]
> 20000 nM	Nc1cccc(-c2ccc(Nc3nc(N)n(-c4cc5c(nn4)-c4ccccc4CCC5)n3)cn2)c1 [Compound 95, 1-(6,7-dihydro-5H-benzo[6,7]cyclohepta[1,2-c]pyridazin-3-yl)-N^3-(6-(3-aminophenyl)pyridine-3-yl)-1H-1,2,4-triazole-3,5-diamine]
> 20000 nM	N#Cc1cccc(-c2ccc(Nc3nc(N)n(-c4cc5c(nn4)-c4ccccc4CCC5)n3)cn2)c1 [Compound 96, 1-(6,7-dihydro-5H-benzo[6,7]cyclohepta[1,2-c]pyridazin-3-yl)-N^3-(6-(3-cyanophenyl)pyridine-3-yl)-1H-1,2,4-triazole-3,5-diamine]
> 20000 nM	Nc1nc(Nc2ccc(-c3ccc4c(c3)OCO4)nc2)nn1-c1cc2c(nn1)-c1ccccc1CCC2 [Compound 97, 1-(6,7-dihydro-5H-benzo[6,7]cyclohepta[1,2-c]pyridazin-3-yl)-N^3-(6-(benzo[d][1,3]dioxole-6-yl)pyridine-3-yl)-1H-1,2,4-triazole-3,5-diamine]
> 20000 nM	CS(=O)(=O)Nc1cccc(-c2ccc(Nc3nc(N)n(-c4cc5c(nn4)-c4ccccc4CCC5)n3)cn2)c1 [Compound 98, 1-(6,7-dihydro-5H-benzo[6,7]cyclohepta[1,2-c]pyridazin-3-yl)-N^3-(6-(3-methylsulfonamidylphenyl)-pyridine-3-yl)-1H-1,2,4-triazole-3,5-diamine]
< 1000 nM	CN1CCC(c2ccc(Nc3nc(N)n(-c4cc5c(nn4)-c4ccccc4CCC5)n3)cc2)CC1 [Compound 99, 1-(6,7-dihydro-5H-benzo[6,7]cyclohepta[1,2-c]pyridazin-3-yl)-N^3-(4-(methylpiperidin-4-yl)phenyl)-1H-1,2,4-triazole-3,5-diamine]
1000 to 10000 nM	Nc1nc(Nc2ccc3c(c2)OCCCO3)nn1-c1cc2c(nn1)-c1ccccc1CCC2 [Compound 100, 1-(6,7-dihydro-5H-benzo[6,7]cyclohepta[1,2-c]pyridazin-3-yl)-N^3-(3,4-dihydro-2H-benzo[b][1,4]dioxepin-7-yl)-1H-1,2,4-triazole-3,5-diamine]
< 1000 nM	Nc1nc(Nc2ccc(N3CCC(N4CCCC4)CC3)cc2)nn1-c1cc2c(nn1)-c1ccccc1CCC2 [Compound 101, 1-(6,7-dihydro-5H-benzo[6,7]cyclohepta[1,2-c]pyridazin-3-yl)-N^3-(4-(4-pyrrolidin-1-ylpiperidinyl)phenyl)-1H-1,2,4-triazole-3,5-diamine]
< 1000 nM	Nc1nc(Nc2ccc(CN3CCC(N4CCCC4)CC3)cc2)nn1-c1cc2c(nn1)-c1ccccc1CCC2 [Compound 103, 1-(6,7-dihydro-5H-benzo[6,7]cyclohepta[1,2-c]pyridazin-3-yl)-N^3-(4-((4-pyrrolidin-1-ylpiperidinyl)methyl)phenyl)-1H-1,2,4-triazole-3,5-diamine]
< 1000 nM	Cc1cc(Nc2nc(N)n(-c3cc4c(nn3)-c3ccccc3CCC4)n2)ccc1N1CCC(N2CCCC2)CC1 [Compound 106, 1-(6,7-dihydro-5H-benzo[6,7]cyclohepta[1,2-c]pyridazin-3-yl)-N^3-(3-methyl-4-(4-pyrrolidin-1-ylpiperidinyl)phenyl)-1H-1,2,4-triazole-3,5-diamine]
< 1000 nM	Nc1nc(Nc2ccc(N3CCN(C4CCCC4)CC3)c(F)c2)nn1-c1cc2c(nn1)-c1ccccc1CCC2 [Compound 107, 1-(6,7-dihydro-5H-benzo[6,7]cyclohepta[1,2-c]pyridazin-3-yl)-N^3-(3-fluoro-4-(4-cyclopentylpiperazinyl)-phenyl)-1H-1,2,4-triazole-3,5-diamine]
